Laboratory results reported in US5079157A, “Novel choline oxidase and method for producing the same” (priority 1988, dated 1992).
Read-outs that look alike come from different tables or passages of the source.

Key:
choline oxidase [1] = assay type: biochemical
Experimental: (§1) Enzymatic activity (U/ml)=ΔA/min.×10.17×dilution ratio
Various substances were added to the reaction mixture to be used for the determination of enzymatic activity as described in the above (2) and the inhibitory effects were examined.

choline oxidase [2] = assay: Substrate specificity of choline oxidase (authentic sample of Example 1); assay type: biochemical, Streptomyces thermoluteus subsp. fuscus C-19; conditions: substrate used in place of choline chloride; relative to choline; enzyme of Example 1; Tris-HCl pH 8.0, 37° C
Experimental: as §1
According to the above determination method of enzymatic activity, various substrates shown in Table 2 were used in place of choline chloride in the reaction mixture, their relative activities to choline were determined. As the enzyme, the authentic sample obtained in Example 1 hereinafter was employed.

[3] = target: T1, choline oxidase (authentic sample S) (Saccharopolyspora hirsuta, UniProt A0A5M7BLR6); conditions: authentic sample S (Example 11)
T1 sequence (A0A5M7BLR6 1-515): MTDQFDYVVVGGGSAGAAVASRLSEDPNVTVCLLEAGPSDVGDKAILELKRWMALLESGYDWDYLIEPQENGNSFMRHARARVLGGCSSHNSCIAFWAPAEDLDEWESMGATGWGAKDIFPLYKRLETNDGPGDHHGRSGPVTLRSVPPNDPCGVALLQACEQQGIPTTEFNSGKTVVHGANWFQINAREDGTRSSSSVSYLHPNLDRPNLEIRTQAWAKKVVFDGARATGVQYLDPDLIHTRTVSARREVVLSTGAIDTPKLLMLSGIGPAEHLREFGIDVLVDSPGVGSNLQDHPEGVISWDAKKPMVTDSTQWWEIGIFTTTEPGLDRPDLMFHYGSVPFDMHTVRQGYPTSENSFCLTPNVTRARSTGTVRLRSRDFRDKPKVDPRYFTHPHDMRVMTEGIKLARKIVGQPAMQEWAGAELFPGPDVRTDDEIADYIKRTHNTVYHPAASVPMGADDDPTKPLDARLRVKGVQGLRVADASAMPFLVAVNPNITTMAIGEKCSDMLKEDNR
Experimental: (§2) A peroxidase (obtained from horse radish, 100 units/mg, Type I, Sigma Chemical Co., U.S.A.) is dissolved in the above mixture to obtain a reaction mixture. The reaction mixture (3.0 ml) is placed in a cuvette (d=1.0 cm) and subjected to pre-heating at 37° C. for 5 minutes. Then, the changes of absorbance at 500 nm at 37° C. are recorded by an autographic recording spectrophotometer (UV-260 Type, Shimadzu Seisakusho, Ltd.) and the changes of absorbance per minute (ΔA/min.) from the initial straight line portion are determined. The enzymatic activity is calculated by the following formula:

[4] = tested on: choline oxidase (authentic sample T); conditions: authentic sample T (Example 10)
Experimental: as §2

[5] = additive 5 mM, without addition = 100
[6] = additive 1.0 mM, without addition = 100

[Ba+2].[Cl-].[Cl-] [BaCl2]
Relative Activity (%) (choline oxidase [1]; [5]): 100%

C[N+](C)(C)CC=O [Betaine aldehyde]
Relative Activity (%) (choline oxidase [2]): 41.9% | reactivity of the enzyme to the substrate [3]: showed reactivity | reactivity of the enzyme to the substrate [4]: showed reactivity

[Ca+2].[Cl-].[Cl-] [CaCl2]
Relative Activity (%) (choline oxidase [1]; [5]): 100%

[Cl-].[Cl-].[Co+2] [CoCl2]
Relative Activity (%) (choline oxidase [1]; [5]): 36.9%

OCCNCCO [Diethanolamine]
Relative Activity (%) (choline oxidase [2]): 0%

[Cl][Hg][Cl] [HgCl2]
Relative Activity (%) (choline oxidase [1]; additive 0.05 mM, without addition = 100): 83.3% | Relative Activity (%) (choline oxidase [1]; additive 0.5 mM, without addition = 100): 60.1% | Relative Activity (%) (choline oxidase [1]; [6]): 50.0%

[Cl-].[K+] [KCl]
Relative Activity (%) (choline oxidase [1]; [5]): 98.0%

[Cl-].[Li+] [LiCl]
Relative Activity (%) (choline oxidase [1]; [5]): 100%

[Cl-].[Cl-].[Mg+2] [MgCl2]
Relative Activity (%) (choline oxidase [1]; [5]): 93.8%

[Cl][Mn][Cl] [MnCl2]
Relative Activity (%) (choline oxidase [1]; [5]): 100%

[Cl][Mo]([Cl])([Cl])([Cl])[Cl] [MoCl5]
Relative Activity (%) (choline oxidase [1]; [6]): 18.1%

NCCO [Monoethanolamine]
Relative Activity (%) (choline oxidase [2]): 0%

CNCCO [N-methylaminoethanol]
Relative Activity (%) (choline oxidase [2]): 0%

Cl.N [NH4 Cl]
Relative Activity (%) (choline oxidase [1]; [5]): 100%

[Cl-].[Na+] [NaCl]
Relative Activity (%) (choline oxidase [1]): 100%

[Cl-].[Cl-].[Zn+2] [ZnCl2]
Relative Activity (%) (choline oxidase [1]; [5]): 82.9%
